The supplement of paper PMC4862054

These molecules were tested on DU-4475 (assay: normalised response (% of control), CellTiter-Glo; higher = more viable cells (100 = DMSO, 0 = benzethonium chloride kill control)). Details: incubation time: 72 h.
Description: (§1)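 DSRT, 72 h incubation, CellTox Green / CellTiter-Glo readout. Signal is normalised to DMSO and benzethonium chloride controls. Value is the normalised response at dose 3.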

Row | SMILES | normalised response [%]
1 | O=C(Cc1ccc(-c2ccc(OCCN3CCOCC3)cc2)cn1)NCc1ccccc1 [KX2-391] (100 nM) | 49.4
2 | O=C(/C=C/c1cccnc1)NCCCCC1CCN(C(=O)c2ccccc2)CC1 [Daporinad] (10 nM) | 30.4
3 | Nc1ncn([C@H]2C[C@H](O)[C@@H](CO)O2)c(=O)n1 [Decitabine] (100 nM) | 94.9
4 | CC[C@@H]1C(=O)N(C)c2cnc(Nc3ccc(C(=O)NC4CCN(C)CC4)cc3OC)nc2N1C1CCCC1 [BI 2536] (10 nM) | 85.2

Each molecule was assayed on CAL-85-1 in the same assay as above. Details: incubation time: 72 h.
Description: as §1

Row | SMILES | normalised response [%]
5 | O=C(O)C1(C(=O)O)CCC1.[NH2-].[NH2-].[Pt+2] [Carboplatin] (100 nM) | 98
6 | Nc1nc(F)nc2c1ncn2[C@@H]1O[C@H](CO)[C@@H](O)[C@@H]1O [Fludarabine] (100 nM) | 101
7 | CNC(=O)c1cc(Oc2ccc(NC(=O)Nc3cc(C(C)(C)C)nn3-c3ccc4ncccc4c3)c(F)c2)ccn1 [Rebastinib] (10 nM) | 98.7
8 | COc1cc2c(Oc3ccc4[nH]c(C)cc4c3F)ncnc2cc1OCCCN1CCCC1 [Cediranib] (10 nM) | 107
9 | C=CC(=O)N1CCC[C@@H](n2nc(-c3ccc(Oc4ccccc4)cc3)c3c(N)ncnc32)C1 [Ibrutinib] (10 nM) | 99.5
10 | O=C(Cc1ccc(-c2ccc(OCCN3CCOCC3)cc2)cn1)NCc1ccccc1 [KX2-391] (100 nM) | 31.8
11 | O=C(/C=C/c1cccnc1)NCCCCC1CCN(C(=O)c2ccccc2)CC1 [Daporinad] (10 nM) | 44.6
12 | Nc1ncn([C@H]2C[C@H](O)[C@@H](CO)O2)c(=O)n1 [Decitabine] (100 nM) | 97.3
13 | CC[C@@H]1C(=O)N(C)c2cnc(Nc3ccc(C(=O)NC4CCN(C)CC4)cc3OC)nc2N1C1CCCC1 [BI 2536] (10 nM) | 43.9

The molecules below were run on BT-474 in the same assay as above. Details: incubation time: 72 h.
Description: as §1

Row | SMILES | normalised response [%]
14 | O=C(O)C1(C(=O)O)CCC1.[NH2-].[NH2-].[Pt+2] [Carboplatin] (100 nM) | 102
15 | Nc1nc(F)nc2c1ncn2[C@@H]1O[C@H](CO)[C@@H](O)[C@@H]1O [Fludarabine] (100 nM) | 106
16 | CNC(=O)c1cc(Oc2ccc(NC(=O)Nc3cc(C(C)(C)C)nn3-c3ccc4ncccc4c3)c(F)c2)ccn1 [Rebastinib] (10 nM) | 102
17 | COc1cc2c(Oc3ccc4[nH]c(C)cc4c3F)ncnc2cc1OCCCN1CCCC1 [Cediranib] (10 nM) | 103
18 | C=CC(=O)N1CCC[C@@H](n2nc(-c3ccc(Oc4ccccc4)cc3)c3c(N)ncnc32)C1 [Ibrutinib] (10 nM) | 104
19 | O=C(Cc1ccc(-c2ccc(OCCN3CCOCC3)cc2)cn1)NCc1ccccc1 [KX2-391] (100 nM) | 66
20 | O=C(/C=C/c1cccnc1)NCCCCC1CCN(C(=O)c2ccccc2)CC1 [Daporinad] (10 nM) | 97
21 | Nc1ncn([C@H]2C[C@H](O)[C@@H](CO)O2)c(=O)n1 [Decitabine] (100 nM) | 103
22 | CC[C@@H]1C(=O)N(C)c2cnc(Nc3ccc(C(=O)NC4CCN(C)CC4)cc3OC)nc2N1C1CCCC1 [BI 2536] (10 nM) | 74.3

These molecules were tested on BT-549 in the same assay as above. Details: incubation time: 72 h.
Description: as §1

Row | SMILES | normalised response [%]
23 | O=C(O)C1(C(=O)O)CCC1.[NH2-].[NH2-].[Pt+2] [Carboplatin] (100 nM) | 93
24 | Nc1nc(F)nc2c1ncn2[C@@H]1O[C@H](CO)[C@@H](O)[C@@H]1O [Fludarabine] (100 nM) | 102
25 | CNC(=O)c1cc(Oc2ccc(NC(=O)Nc3cc(C(C)(C)C)nn3-c3ccc4ncccc4c3)c(F)c2)ccn1 [Rebastinib] (10 nM) | 109
26 | COc1cc2c(Oc3ccc4[nH]c(C)cc4c3F)ncnc2cc1OCCCN1CCCC1 [Cediranib] (10 nM) | 113
27 | C=CC(=O)N1CCC[C@@H](n2nc(-c3ccc(Oc4ccccc4)cc3)c3c(N)ncnc32)C1 [Ibrutinib] (10 nM) | 99.8
28 | O=C(Cc1ccc(-c2ccc(OCCN3CCOCC3)cc2)cn1)NCc1ccccc1 [KX2-391] (100 nM) | 50.1
29 | O=C(/C=C/c1cccnc1)NCCCCC1CCN(C(=O)c2ccccc2)CC1 [Daporinad] (10 nM) | 102
30 | Nc1ncn([C@H]2C[C@H](O)[C@@H](CO)O2)c(=O)n1 [Decitabine] (100 nM) | 92.2
31 | CC[C@@H]1C(=O)N(C)c2cnc(Nc3ccc(C(=O)NC4CCN(C)CC4)cc3OC)nc2N1C1CCCC1 [BI 2536] (10 nM) | 37

These molecules were tested on MDA-MB-231 in the same assay as above. Details: incubation time: 72 h.
Description: as §1

Row | SMILES | normalised response [%]
32 | O=C(O)C1(C(=O)O)CCC1.[NH2-].[NH2-].[Pt+2] [Carboplatin] (100 nM) | 100
33 | Nc1nc(F)nc2c1ncn2[C@@H]1O[C@H](CO)[C@@H](O)[C@@H]1O [Fludarabine] (100 nM) | 119
34 | CNC(=O)c1cc(Oc2ccc(NC(=O)Nc3cc(C(C)(C)C)nn3-c3ccc4ncccc4c3)c(F)c2)ccn1 [Rebastinib] (10 nM) | 92
35 | COc1cc2c(Oc3ccc4[nH]c(C)cc4c3F)ncnc2cc1OCCCN1CCCC1 [Cediranib] (10 nM) | 105
36 | C=CC(=O)N1CCC[C@@H](n2nc(-c3ccc(Oc4ccccc4)cc3)c3c(N)ncnc32)C1 [Ibrutinib] (10 nM) | 108
37 | O=C(Cc1ccc(-c2ccc(OCCN3CCOCC3)cc2)cn1)NCc1ccccc1 [KX2-391] (100 nM) | 64.4
38 | O=C(/C=C/c1cccnc1)NCCCCC1CCN(C(=O)c2ccccc2)CC1 [Daporinad] (10 nM) | 91.5
39 | Nc1ncn([C@H]2C[C@H](O)[C@@H](CO)O2)c(=O)n1 [Decitabine] (100 nM) | 105
40 | CC[C@@H]1C(=O)N(C)c2cnc(Nc3ccc(C(=O)NC4CCN(C)CC4)cc3OC)nc2N1C1CCCC1 [BI 2536] (10 nM) | 51.4

The molecules below were run on HDQ-P1 in the same assay as above. Details: incubation time: 72 h.
Description: as §1

Row | SMILES | normalised response [%]
41 | O=C(O)C1(C(=O)O)CCC1.[NH2-].[NH2-].[Pt+2] [Carboplatin] (100 nM) | 99
